{"source": "paper PMC9312114", "about": "“Synthesis and Evaluation of Novel DNA Minor Groove Binders as Antiamoebic Agents” (Antibiotics, 2022)", "key": {"Acanthamoeba castellanii [1]": {"tested_on": "Acanthamoeba castellanii", "assay": "Amoebicidal assay", "assay_type": "cell-based, Acanthamoeba castellanii genotype T4 (ATCC 50492)", "description": "Acanthamoeba castellanii genotype T4 (ATCC 50492) was cultivated in 10 mL growth medium of peptone yeast glucose (PYG) in tissue flasks (Baig, et al., 2021; Anwar, et al., 2019). The growth medium, PYG, consists of 0.75% proteose peptone, 0.75% yeast extract, and 1.5% glucose. Next, the amoebae were kept in tissue flasks and incubated at 30 °C.\nTo determine the compounds’ antiamoebic effects, amoebicidal assays were conducted. The 5 × 10^5 amoebae were placed in a 24-well plate and brought to a final volume of 500 µL. […] The 24-well plate was then placed in a 30 °C incubator for 24 h. Positive and negative controls were added to the assay in order to ensure reliable results. Serving as the negative control was the amoebae alone, with RPMI [4]. Meanwhile, amoebae, along with 0.25% sodium dodecyl sulphate (SDS), were used as the positive control. Through the addition of 0.1% methylene blue, live and dead amoebae were distinguished. Additionally, significant compounds were identified by conducting a Student’s t-test with a two-tailed distribution. Furthermore, the MIC50 values of three compounds were determined by using concentrations of […], 75, and 100 µM."}, "Acanthamoeba castellanii [2]": {"tested_on": "Acanthamoeba castellanii", "assay": "Encystation assay", "assay_type": "cell-based", "details": "16% glucose, 48 h, negative control 100% cysts", "description": "The effects of the compounds on amoeba encystation were determined through the conduction of encystation assays. Briefly, 1 × 10^6 trophozoites were incubated with the compounds in a final concentration of 16% filter-sterilized glucose. Following a 48 h incubation period, 0.1% SDS was added per well for 20 min. The cysts were then counted by using a haemocytometer. To ensure accuracy, Acanthamoeba castellanii was cultured in 16% glucose, serving as the negative control."}, "[3]": {"tested_on": "Acanthamoeba castellanii cysts", "assay": "Excystation assay", "assay_type": "cell-based", "details": "cysts in PYG, negative control 100%, read-out: viable trophozoites (re-emergence of cysts to trophozoites)", "description": "Amoeba culture was suspended in 3 mL phosphate-buffered saline (PBS) and placed on non-nutrient bacteriological agar plates to allow for the growing of Acanthamoeba castellanii cysts. After two weeks, PBS was applied to plates containing amoeba cysts, which were then scraped off. The amoebae were centrifuged at 3000× g for 10 min, and the resulting pellet was resuspended in RPMI. The 5 × 10^5 cysts were then incubated in PYG, along with 50 µM of the compounds. To ensure accuracy, amoeba cysts in PYG alone were considered as the negative control, whereas amoeba cysts in RPMI alone were taken as the positive control, as the cysts would not be able to revert back to trophozoites. The amoeba trophozoites were then numbered by using a haemocytometer."}, "HeLa cells": {"tested_on": "HeLa cells", "assay": "Cytotoxicity assay (LDH release)", "assay_type": "cell-based, human", "details": "50 µM, 24 h, LDH release, Triton X-100 = 100%", "description": "HeLa cells were acquired from American Type Culture Collection (ATCC) of identification ATCC CCL-2, Singapore. The cells are utilized to conduct cytotoxicity and cytopathogenicity assays. Through their cultivation in complete media, the cells were grown, and then they were placed in a 95% humidifying incubator at 37 °C and 5% CO2. Complete medium comprises Roswell Park Memorial Media (RPMI), 1% penicillin–streptomycin, 1% minimum essential medium amino acids, 1% L-glutamine, and 10% fetal bovine serum (FBS). To determine the toxicity of the compounds against human HeLa cells, cytotoxicity assays were conducted. In short, HeLa cells were cultured in 96-well plates and treated with the compounds. The plate was then placed in a humidifying incubator with 95% humidity and 5% CO2, at 37 °C, for 24 h. After 24 h, the supernatant was collected, and the cytotoxicity of the compounds was determined through a cytotoxicity detection kit that measured the quantity of lactate dehydrogenase (LDH) release. Accurate results were ensured through the addition of positive and negative controls. Untreated HeLa cells served as the negative control, whereas HeLa cells treated with 1% Triton X-100 served as the positive control. Finally, the cytotoxic properties were numerically determined by following the necessary calculations: (absorbance of media from cells treated with the drugs—absorbance of media from cells of negative control)/(absorbance of media from cells of positive control—absorbance of media from cells of negative control) × 100 [19]."}, "[4]": {"tested_on": "Acanthamoeba castellanii on HeLa cell monolayers", "assay": "Cytopathogenicity assay (amoeba-mediated host-cell death)", "assay_type": "cell-based", "details": "amoebae pretreated with 50 µM for 2 h, then 24 h on HeLa cells, negative control 100%", "description": "Amoeba-mediated host-cell death was determined by treating 5 × 10^5 amoebae with 50 µM of compounds. The amoeba-containing plate was then placed in the incubator for 2 h at 30 °C. Following the 2 h incubation period, the treated amoebae were put on confluent HeLa cell monolayers. The plate containing the treated amoebae and HeLa cells was incubated for 24 h. Progressing the incubation period, the supernatant was collected, and the cytotoxicity was determined. Accurate results were ensured through the addition of negative and positive controls. The untreated amoebae, alone, on the cells served as the negative control, while the cells treated with Triton X-100 served as the positive control."}, "DNA": {"tested_on": "DNA", "assay": "Biophysical analysis of binding with DNA", "details": "in words"}}}
{"compound": "CN(C)CCCNC(=O)c1cc(NC(=O)c2cc(NC(=O)c3cc(NC(=O)c4nccn4C)cn3C)cn2C)cn1C", "note": "[MGB5, N-(5-((5-((5-((3-(dimethylamino)propyl)carbamoyl)-1-methyl-1H-pyrrol-3-yl)carbamoyl)-1-methyl-1H-pyrrol-3-yl)carbamoyl)-1-methyl-1H-pyrrol-3-yl)-1-methyl-1H-imidazole-2-carboxamide]", "values": [{"measurement": "viability at 50 µM", "setting": "Acanthamoeba castellanii [1]; Acanthamoeba castellanii, 50 µM, 24 h, negative control 100%, read-out: amoeba viability", "result": 98.4, "unit": "%"}, {"measurement": "activity against Acanthamoeba castellanii", "setting": "Acanthamoeba castellanii [1]; in words", "result": "no activity"}, {"measurement": "cysts present", "setting": "Acanthamoeba castellanii [2]", "result": 48.3, "unit": "%"}, {"measurement": "viability at 50 µM", "setting": "[3]", "result": 80.8, "unit": "%"}, {"measurement": "cytotoxicity against human HeLa cells", "setting": "HeLa cells", "result": 10.9, "unit": "%"}, {"measurement": "amoeba-mediated host-cell death (cytotoxic activity due to amoeba)", "setting": "[4]", "result": 57.8, "unit": "%"}, {"measurement": "ability to bind with DNA", "setting": "DNA", "result": "bind with DNA"}]}
